Earlier results in article PMC4948595 (Journal of Medicinal Chemistry, 2016).

Test system: influenza endonuclease

Compound: O=c1[nH]cc(-c2ccc(-c3nnn[nH]3)cc2)cc1O [Parhi-6]
- IC50: 368 ± 41 nM
